In US10696691B2, “BACE1 inhibitors” (Hoffmann-La Roche Inc., priority 2015, dated 2020):
pIC50: −log10 of the molar value.

Target: T1, BACE1 (Homo sapiens, UniProt P56817)
T1 construct: endogenous in cells; host or cells: HEK293 APP cells
Experiment: Cellular Aβ-lowering assay (Abeta 40 AlphaLISA, HEK293 APP cells)
Assay type: cell-based
Details: 18-20 hrs incubation, Aβ 40 in culture supernatants, read-out: BACE1 cell act. Aβ40 IC50
Method: Cellular Aβ-Lowering Assay:
The Abeta 40 AiphaLISA Assay can be used. The HEK293 APP cells were seeded in 96 well Microtiter plates in cell culture medium (Iscove's, plus 10% (v/v) fetal bovine serum, penicillin/streptomycin) to about 80% confluency and the compounds were added at a 3× concentration in ⅓ volume of culture medium (final DMSO concentration was kept at 1% v/v). After 18-20 hrs incubation at 37° C. and 5% CO2 in a humidified incubator, the culture supernatants were harvested for the determination of Aβ 40 concentrations using Perkin-Elmer Human Amyloid beta 1-40 (high specificity) Kit (Cat # AL275C).
In a Perkin-Elmer White Optiplate-384 (Cat #6007290), 2 ul culture supernatants were combined with 2 μl of a 10× AlphaLISA Anti-hABAcceptor beads+Biotinylated Antibody Anti-AD 1-40 Mix (50 μg/mL/5 nM). After 1 hour room temperature incubation, 16 μl of a 1.25× preparation of Streptavidin (SA) Donor beads (25 μg/mL) were added and incubated for 30 minutes in the Dark. Light Emission at 615 nm was then recorded using EnVision-Alpha Reader. Levels of Aβ 40 in the culture supernatants were calculated as percentage of maximum signal (cells treated with 1% DMSO without inhibitor). The IC50 values were calculated using the Excel XLfit software.

T1 sequence (P56817 46-501): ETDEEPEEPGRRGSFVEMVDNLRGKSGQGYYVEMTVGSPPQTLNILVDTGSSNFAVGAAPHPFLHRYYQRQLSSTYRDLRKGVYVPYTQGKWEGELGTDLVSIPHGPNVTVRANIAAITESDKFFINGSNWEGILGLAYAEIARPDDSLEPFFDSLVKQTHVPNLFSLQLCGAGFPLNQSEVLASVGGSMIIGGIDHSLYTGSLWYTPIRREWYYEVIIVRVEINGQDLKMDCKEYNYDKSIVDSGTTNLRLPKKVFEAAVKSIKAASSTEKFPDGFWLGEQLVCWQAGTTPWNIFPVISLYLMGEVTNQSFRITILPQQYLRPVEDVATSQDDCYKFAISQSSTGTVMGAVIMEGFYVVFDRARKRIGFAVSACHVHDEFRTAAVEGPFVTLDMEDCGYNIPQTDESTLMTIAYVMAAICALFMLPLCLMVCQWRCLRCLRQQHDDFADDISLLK

## Cc1cnc(C(=O)Nc2ccc(F)c([C@@]3(C)N=C(N)C(C)(C)[S@@]4(=O)=NCC[C@@H]34)c2)c(C)c1 [Example 23AB, N-(3-((3aS,4R,8R)-6-amino-4,7,7-trimethyl-8-oxido-3,3a,4,7-tetrahydro-2H-isothiazolo[1,5-a][1,4]thiazin-4-yl)-4-fluorophenyl)-3,5-dimethylpicolinamide]
  pIC50: 9.70

## CC1(C)C(N)=N[C@](C)(c2cc(NC(=O)c3ccc(Cl)cn3)ccc2F)[C@@H]2CCN=[S@@]21=O [Example 18AB, N-(3-((3aS,4R,8R)-6-amino-4,7,7-trimethyl-8-oxido-3,3a,4,7-tetrahydro-2H-isothiazolo[1,5-a][1,4]thiazin-4-yl)-4-fluorophenyl)-5-chloropicolinamide]
  pIC50: 9.70

## Cc1cc(C#N)ccc1C(=O)Nc1ccc(F)c([C@@]2(C)N=C(N)C(C)(C)[S@@]3(=O)=NCC[C@@H]23)c1 [Example 9AB, N-(3-((3aS,4R,8R)-6-amino-4,7,7-trimethyl-8-oxido-3,3a,4,7-tetrahydro-2H-isothiazolo[1,5-a][1,4]thiazin-4-yl)-4-fluorophenyl)-4-cyano-2-methylbenzamide]
  pIC50: 7.91

## CC1(C)C(N)=N[C@](C)(c2cc(NC(=O)c3ncc(C(F)(F)F)cc3Cl)ccc2F)[C@@H]2CCN=[S@@]21=O [Example 8AB, N-(3-((3aS,4R,8R)-6-amino-4,7,7-trimethyl-8-oxido-3,3a,4,7-tetrahydro-2H-isothiazolo[1,5-a][1,4]thiazin-4-yl)-4-fluorophenyl)-3-chloro-5-(trifluoromethyl)picolinamide]
  pIC50: 9.52

## Cc1ccc(C(=O)Nc2ccc(F)c([C@@]3(C)N=C(N)C(C)(C)[S@@]4(=O)=NCC[C@@H]34)c2)nc1 [Example 20AB, N-(3-((3aS,4R,8R)-6-amino-4,7,7-trimethyl-8-oxido-3,3a,4,7-tetrahydro-2H-isothiazolo[1,5-a][1,4]thiazin-4-yl)-4-fluorophenyl)-5-methylpicolinamide]
  pIC50: 9.40

## COc1ccc(C(=O)Nc2ccc(F)c([C@@]3(C)N=C(N)C(C)(C)[S@@]4(=O)=NCC[C@@H]34)c2)nc1 [Example 24AB, N-(3-((3aS,4R,8R)-6-amino-4,7,7-trimethyl-8-oxido-3,3a,4,7-tetrahydro-2H-isothiazolo[1,5-a][1,4]thiazin-4-yl)-4-fluorophenyl)-5-methoxypicolinamide]
  pIC50: 9.15

## CC1(C)C(N)=N[C@](C)(c2cc(NC(=O)c3ccc(C#N)cn3)ccc2F)[C@@H]2CCN=[S@@]21=O [Example 16AB, N-(3-((3aS,4R,8R)-6-amino-4,7,7-trimethyl-8-oxido-3,3a,4,7-tetrahydro-2H-isothiazolo[1,5-a][1,4]thiazin-4-yl)-4-fluorophenyl)-5-cyanopicolinamide]
  pIC50: 9.70

## CC1(C)C(N)=N[C@](C)(c2cc(NC(=O)c3nn(C(F)F)cc3Cl)ccc2F)[C@@H]2CCN=[S@@]21=O [Example 6AB, N-(3-((3aS,4R,8R)-6-amino-4,7,7-trimethyl-8-oxido-3,3a,4,7-tetrahydro-2H-isothiazolo[1,5-a][1,4]thiazin-4-yl)-4-fluorophenyl)-4-chloro-1-(difluoromethyl)-1H-pyrazole-3-carboxamide]
  pIC50: 8.96

## CC1(C)C(N)=N[C@](C)(c2cc(NC(=O)c3ncc(F)cc3F)ccc2F)[C@@H]2CCN=[S@@]21=O [Example 19AB, N-(3-((3aS,4R,8R)-6-amino-4,7,7-trimethyl-8-oxido-3,3a,4,7-tetrahydro-2H-isothiazolo[1,5-a][1,4]thiazin-4-yl)-4-fluorophenyl)-3,5-difluoropicolinamide]
  pIC50: 8.89

## CC1(C)C(N)=N[C@](C)(c2cc(NC(=O)c3ccc(OCC(F)(F)C(F)F)cn3)ccc2F)[C@@H]2CCN=[S@@]21=O [Example 12AB, N-(3-((3aS,4R,8R)-6-amino-4,7,7-trimethyl-8-oxido-3,3a,4,7-tetrahydro-2H-isothiazolo[1,5-a][1,4]thiazin-4-yl)-4-fluorophenyl)-5-(2,2,3,3-tetrafluoropropoxy)picolinamide]
  pIC50: 8.85
